Where no end group is shown, it is not given here. [ ]: non-standard residue; d: D form. Dopa = N[C@@H](Cc1ccc(O)c(O)c1)C(=O)O
Experiments:
[1] = system: total splenocytes restimulated with MHC class-1 epitope KVPRNQDWL (human gp100); assay type: in vivo, C57-B16 mice; conditions: for CD8 immune response with various melanin precursors: 10 μg hgp100 epitope co-incubated with melanin precursor, pH 8.5 Tris, + 10 μg CpG-28, subcutaneous; for number of IFNy-secreting lymphocytes mean +/− SD: gp100 peptide 10 μg/mouse + L-Dopa 40 μg/mouse incubated 18 hours aerated, mixed with the TLR9 agonist
Description: (§1) […] After 2 immunizations, the CD8+immune response was evaluated on day 14 using a gamma interferon (IFNg)-secretion Elispot assay, after restimulation of total splenocytes with the relevant MHC class-1 epitope ([…] (SEQ ID NO: 2) for Ovalbumine or […] (SEQ ID NO: 3) for human gp100)

[2] = 10 kD filtration and SDS-PAGE of melanin-EphA2 complex; assay type: physicochemical
Description: FIG. 11: SDS-PAGE (16% polyacrylamide gel) of various preparations: lane MW: molecular weight marker; lane “Ctrl EphA2”: control peptide EphA2 alone (SEQ ID NO: 9); lane “Filtrate”: filtrate of complex melanin-EphA2 after filtration on a 10 kD filter; lane “Retentate”: retentate of complex melanin-EphA2 after filtration on a 10 kD filter, resuspension, dissolution and heating in loading buffer containing SDS. (Melanin-EphA2 was obtained by co-incubating EphA2 peptide with L-Dopa (weight ration 1:10) in arerated conditions)
A solution of L-Dopa was mixed with an EPHA2 peptide ([…], SEQ ID NO: 9) at a weight ratio L-Dopa:epitope of 1:4. The mixture was then oxidized at pH 8.5 in aerated conditions.

[3] = Solubility and stability of oxidized Dopa or Dopamine solutions; assay type: physicochemical; conditions: for precipitation under centrifugation: 2 mg/ml oxidized solution, Dopa: oxygen at pH8.5, 16 000 g for 30 minutes; for aggregates under light microscopy: 2 mg/ml solution oxidized 20 hours, with or without pOVA 0.1 mg/ml
Description: Dopa (2 mg/ml) or Dopamine (2 mg/ml) solutions were incubated with or without the pOVA (0.1 mg/ml) at pH 7.4 or 8.5, and with different oxidizing agents (O2, ammonium persulfate) for 20 hours. All solutions darkened within a few hours. […] Under centrifugation, the dopamine solutions precipitated, and some dark material remained adherent to the tubes.

[4] = system: total splenocytes restimulated with MHC class-1 epitope SIINFEKL (Ovalbumine); assay: IFNg-secretion Elispot of splenocytes after immunization, restimulation with Ovalbumine epitope; assay type: in vivo, C57-B16 mice; conditions: for immune response, Dopamine as melanin precursor: peptides with Dopamine; for CD8 / CTL immune response: 1 μg peptide + 10 μg CpG-28, day 0 & day 7; for CD8 / CTL immune response / CD8 immune response (IFNg spots): day 14; for CD8 immune response (IFNg spots): Ovalbumine epitope alone or mixed with 10 μg DOPA, with or without 18 hours oxygen incubation, + CpG-28; for immune response after 2 immunizations, Dopa as melanin precursor: 3.6 μg peptide co-incubated 18 hours with 100 μg DOPA pH 8.5
Description: as §1

[5] = Thin-layer chromatography of peptide and oxidized Dopa (complex formation); assay type: physicochemical; conditions: 72-hour incubation pH 8.5; hgp100 1 mg/ml, Dopa 10 mg/ml
Description: FIG. 8: Thin-layer chromatography (TLC) after a 72-hour incubation at pH 8.5 (Tris buffer). Left: hgp100 (SEQ ID NO: 3). only; middle: hgp100 (1 mg/ml) and Dopa (10 mg/ml), co-incubated with O2; right: hgp100 (1 mg/ml) added after Dopa (10 mg/ml) had been incubated with O2. […] (TLC was performed on aluminium foils, coated with a thin layer of silica gel as the stationary phase. After the samples have been loaded, a mixture of 1-Butanol/acetic acid/H2O (2/1/1) was used as the mobile phase. The TLC plates were then sprayed with ninhydrin reagent)
FIG. 9: Thin-layer chromatography (TLC) after a 72-hour incubation at pH 8.5 (Tris buffer). Left: hgp100 (, SEQ ID NO: 3) only; other lanes: hgp100 (1 mg/ml) incubated with various doses of Dopa (Dopa/hgp100 weight ratios: from 1/5 to 10/1). […] (TLC: similar conditions as FIG. 8).
In vitro experiments with Thin-layer chromatography (TLC) support the hypothesis that the incubation of the peptide while the catechol is being oxidized modifies the characteristic of the final formulation and that a complex is formed between the two entities (FIG. 8).

[6] = system: viral epitope gPr73 (SFAVATTAL); assay: CD8 immune response to viral epitope gPr73 variants co-incubated with L-Dopa; assay type: in vivo; conditions: Balb/c mice; peptide co-incubated with L-Dopa, mixed to CpG-28
Description: Adding arginines (R) or lysines (K) to the NH2-terminal end of the peptides enhanced the immune response when compared to unmodified Trp2 (animals were immunized once with formulations consisting of the peptide (10 μg/mouse) co-incubated with L-Dopa (100 μg/mouse), then mixed to CpG-28 (10 μg/mouse). The CD8 immune responses were assessed on day 8).
Similar data were obtained with a viral epitope in Balb/c mice (gPr73: SFAVATTAL, SEQ ID NO: 8). […] In both cases, if a glutamate (E) was added next to the lysine, the efficacy was reduced (Table 2).

[7] = system: IFNγ-secreting lymphocytes; assay: Elispot after immunization with formulations oxidized by different agents (Example 2, Table 1); assay type: in vivo, mice; conditions: H2O2 or ammonium persulfate as oxidant
Description: C57-B16, 5-week old, mice were immunized twice (on day 1 and day 7) with the different formulations combined to a Toll-like Receptor 9 (TLR-9) agonist (10 μg of the CpG-28 oligonucleotide, […] (SEQ ID NO: 1)). After 2 immunizations, the CD8+immune response was evaluated on day 14 using a gamma interferon (IFNg)-secretion Elispot assay, after restimulation of total splenocytes with the relevant MHC class-1 epitope ([…] (SEQ ID NO: 2) for Ovalbumine or […] (SEQ ID NO: 3) for human gp100)
Other oxidizing agents such as hydrogen peroxide (H2O2) or ammonium persulfate (APS) can be used (FIG. 3).

[8] = system: anti-ovalbumine antibodies; assay: Humoral response: anti-ovalbumine antibody titers; assay type: in vivo, C57/Bml6 mice; conditions: day 14
Description: Ovalbumin protein (1 μg) was mixed to Dopa (1 μg) at pH 7.4, incubated for 4 hours with APS (0.3 μg), and injected subcutaneously with 10 μg in C57/Bml6 mice on day 0 and day 7.

[9] = 1 μg mixed to Dopa 1 μg pH 7.4, 4 hours APS 0.3 μg, subcutaneous day 0 and day 7

CC(C)(C)OC(=O)N[C@@H](Cc1ccc(O)c(O)c1)C(=O)O [Boc-Dopa, N-(tert-Butyloxycarbonyl)-L-dopa]
CD8 immune response with various melanin precursors ([1]; 18 hours oxygen): reduced magnitude

FSHHNIIRL (also: oxidized with L-Dopa to melanin) [EPHA2 peptide]
peptide from retentate heated in loading buffer containing SDS (SDS-page) ([2]; 16% polyacrylamide gel): got dissociated from melanin | peptide in the filtrate after 10 kD filtration ([2]; peptide oxidized with L-Dopa at pH 8.5 in aerated conditions): no peptide could detected in the filtrate

NCCc1ccc(O)c(O)c1 [Dopamine]
precipitation under centrifugation [3]: precipitated | aggregates under light microscopy [3]: large aggregates were seen under light microscopy | CD8 immune response with various melanin precursors ([1]; 18 hours oxygen): reduced magnitude | CTL immune response ([4]; long OVA peptide combined to Dopamine, incubated 4 hours with APS, + 10 μg CpG-28): triggered an immune response

SMLVLLPDEVSGLEQLESIINFEKLTEWTS (long OVA peptide) [SEQ ID NO:4]
immune response, Dopamine as melanin precursor [4]: highest immune response

TAAACGTTATAACGTTACGACGTCAT (listed as DNA, chemistry not given here) [CpG-28]
immune responses, adjuvant added before versus after oxidation ([1]; L-DOPA 100 μg + hgp100 epitope, 18 hours oxygen): similar | number of IFNy-secreting lymphocytes mean +/− SD [1]: 211 +/− 83

NC(Cc1cc(O)c(O)cc1O)C(=O)O (stereo not drawn) [6-hydroxydopa, 6-Hydroxy-DOPA]
CD8 immune response with various melanin precursors ([1]; 18 hours oxygen): significant CD8 immune response

KVPRNQDWL (human gp100 epitope) [hgp100]
mean number of IFNγ-secreting lymphocytes +/−SD ([1]; C57BL/6 mice, gp100 10 μg/mouse, with or without L-Dopa 40 μg/mouse (18 hours aerated), combined to poly I:C 10 μg/mouse): 1+/−1 | minimal dose of the epitope required to induce CTLs ([1]; gp100-melanin formulation): 0.5 µg | IFNγ-secreting lymphocytes when combined with CpG ([1]; mixed with TLR9 agonist CpG-28, n=8 mice/group): not | CTL response, epitope added after L-Dopa had been oxidized instead of before ([1]; mouse, in vivo): a reduction in the CTL response was observed | free peptide on TLC, Dopa and peptide co-incubated with oxidizing agent [5]: not seen any more and not | free peptide on TLC, peptide added after Dopa had been oxidized [5]: Free peptide was seen

pOVA-D: Ovalbumine epitope synthesized with a DOPA at the end of the peptide (SIINFEKL[Dopa])
CD8 / CTL immune response [4]: strong CTL immune responses

TCCATGACGTTCCTGACGTT [compound 1826]
number of IFNy-secreting lymphocytes mean +/− SD [1]: 134 +/− 54

SFAVATTAL (Viral epitope of gPr73)
number of IFNy-secreting lymphocytes mean +/− SD [6]: 5 +/− 4

N[C@H](Cc1ccc(O)c(O)c1)C(=O)O [D-Dopa, D-3,4-dihydroxyphenylalanine]
CD8 immune response with various melanin precursors ([1]; 18 hours oxygen): significant CD8 immune response

N[C@@H](Cc1ccc(O)c(O)c1)C(=O)O [L-Dopa, L-3,4-dihydroxyphenylalanine]
precipitation under centrifugation [3]: did not precipitate | aggregates under light microscopy [3]: no aggregates can be seen | filterability of the oxidized solution ([3]; incubated with oxygen at pH8.5): can be filtered through a 0.2 μm filter, but not through a 100 kDalton-cut off filter | stability of the oxidized solution ([3]; incubated with oxygen at pH8.5): stable for several weeks | CD8 immune response ([1]; 10 μg hgp100 epitope co-incubated with 100 μg DOPA pH 8.5, 18 hours oxygen, + CpG-28): significant CD8 immune response | CD8 immune response with various melanin precursors ([1]; 18 hours oxygen): significant CD8 immune response | optimal molar ratio of oxidant/Dopa for vaccine efficacy [7]: around 1/4 | CD8 immune response (IFNg spots) [4]: able to induce IFNg spots

SMLVLLPKSVSGLSQLESIINFEKLTSWTS (neutral long OVA peptide) [SEQ ID NO: 5, long OVA peptide modified to be neutral]
immune response after 2 immunizations, Dopa as melanin precursor ([4]; + 10 μg CpG-28): intermediate | immune response, Dopamine as melanin precursor [4]: intermediate

SIINFEKL [pOVA]
CD8 / CTL immune response [4]: did not trigger any significant CD8 immune response | CD8 immune response (IFNg spots) [4]: did not trigger any significant CD8 immune response | amount of epitope sufficient to detect an immune response ([4]; epitope with DOPA model, data not shown): ≤ 10 ng

Oc1cccc2cccc(O)c12 [di-hydroxynaphtalene]
CD8 immune response with various melanin precursors ([1]; 18 hours oxygen): significant CD8 immune response

SMLVLLPKKVSGLKQLESIINFEKLTKWTS (positive long OVA peptide) [SEQ ID NO: 6, long OVA peptide modified to be positively charged]
immune response after 2 immunizations, Dopa as melanin precursor ([4]; + 10 μg CpG-28): strong | immune response, Dopamine as melanin precursor [4]: lowest one

TGACTGTGAACGTTCGAGATGA [ISS]
number of IFNy-secreting lymphocytes mean +/− SD [1]: 147 +/− 63

D-pOVA: Ovalbumine epitope synthesized with a DOPA at the beginning of the peptide ([Dopa]SIINFEKL)
CD8 / CTL immune response [4]: strong CTL immune responses

B1: Ovalbumin protein: Ovalbumin protein mixed to Dopa at pH 7.4 and incubated with APS (composition melanin/antigen) (protein)
chain: GSIGAASMEFCFDVFKELKVHHANENIFYCPIAIMSALAMVYLGAKDSTRTQINKVVRFDKLPGFGDSIEAQCGTSVNVHSSLRDILNQITKPNDVYSFSLASRLYAEERYPILPEYLQCVKELYRGGLEPINFQTAADQARELINSWVESQTNGIIRNVLQPSSVDSQTAMVLVNAIVFKGLWEKAFKDEDTQAMPFRVTEQESKPVQMMYQIGLFRVASMASEKMKILELPFASGTMSMLVLLPDEVSGLEQLESIINFEKLTEWTSSNVMEERKIKVYLPRMKMEEKYNLTSVLMAMGITDVFSSSANLSGISSAESLKISQAVHAAHAEINEAGREVVGSAEAGVDAASVSEEFRADHPFLFCIKHIATNAVLFFGRCVSP
titer of anti-ovalbumine antibodies IgG1 [8, 9]: 1/8000 | titer of anti-ovalbumine antibodies IgG2b [8, 9]: 1/5250 | type of immune response (IgG subtypes) [8]: mixed Th1 and Th2 immune response

From US10857227B2, “Immunostimulatory compositions” (ASSISTANCE PUBLIQUE-HOPITAUX DE PARIS, priority 2015, dated 2020)
